# Calls of active or inactive are those of the source.
# Legend:
# [1] = biological target: T1, Estrogen receptor (Homo sapiens, UniProt P03372); test: ERα–SRC-3 coactivator interaction inhibitors, confirmation, orthogonal assay, biochemical, ELISA, streptavidin-HRP readout (AID 1079)
# T1 sequence (P03372 whole entry): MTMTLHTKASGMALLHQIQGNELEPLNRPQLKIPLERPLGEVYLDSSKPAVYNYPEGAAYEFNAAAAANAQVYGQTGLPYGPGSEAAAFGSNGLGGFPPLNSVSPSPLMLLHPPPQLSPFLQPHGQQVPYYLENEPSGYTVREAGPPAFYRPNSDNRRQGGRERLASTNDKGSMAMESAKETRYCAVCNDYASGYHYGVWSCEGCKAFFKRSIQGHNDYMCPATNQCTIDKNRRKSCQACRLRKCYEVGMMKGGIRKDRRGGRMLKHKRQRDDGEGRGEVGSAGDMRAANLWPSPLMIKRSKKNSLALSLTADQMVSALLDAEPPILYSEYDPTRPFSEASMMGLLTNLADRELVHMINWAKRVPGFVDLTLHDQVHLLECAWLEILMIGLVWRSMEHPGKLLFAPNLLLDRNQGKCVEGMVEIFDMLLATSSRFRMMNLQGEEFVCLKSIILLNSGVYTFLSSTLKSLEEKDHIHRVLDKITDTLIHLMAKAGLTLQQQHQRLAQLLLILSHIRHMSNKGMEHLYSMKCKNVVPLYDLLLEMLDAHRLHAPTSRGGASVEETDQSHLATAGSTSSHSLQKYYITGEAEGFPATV
# [2] = biological target: Protein Wnt-3a (Mus musculus, UniProt P27467); test: Wnt3a-driven reporter signaling inhibition, dose response, selectivity assay for Gli-SUFU antagonist project, Wnt-LIGHT cells, luminescence (AID 651570); type: functional; conditions: read-out: IC50_Mean;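 also: Wnt-LIGHT reporter cells stimulated with conditioned medium from Wnt3a-producing cells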
# [3] = biological target: Oxytocin receptor (Homo sapiens, UniProt P30559); test: Fluorescence-based cell-based high throughput dose response assay for agonists of the Oxytocin Receptor (OXTR). [Related pubchem assays: 2435 (Primary screen (OXTR agonists in singlicate)), 434991 (Counterscreen (V1R agonists in triplicate)), 2482 (Summary (OXTR agonists)), 434963 (Confirmation screen (OXTR agonists in triplicate))]; type: functional
# [4] = biological target: Vasopressin V1a receptor (Homo sapiens, UniProt P37288); test: Counterscreen for Oxytocin Receptor (OXTR) agonists: Fluorescence-based cell-based high throughput dose response assay to identify agonists of the vasopressin 1 receptor (V1R). [Related pubchem assays: 2435 (Primary screen (OXTR agonists in singlicate)), 434991 (Counterscreen (V1R agonists in triplicate)), 2482 (Summary (OXTR agonists)) …; type: functional
# [5] = Shn3 3'UTR reporter inhibitors, dose response, cell-based, Clone20 osteoblasts, firefly luciferase, cherry-picked (AID 624132); type: functional;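 also: firefly luciferase luminescence from reporter carrying the Shn3 3'UTR in osteoblasts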
# [6] = HepG2 cell cytotoxicity, dose response, cytotoxicity control for Shn3 inhibitor project, CellTiter-Glo, cherry-picked (AID 624134); type: functional, cell-based
# [7] = control 3'UTR Renilla luciferase suppression, dose response, counter-screen for Shn3 inhibitor project, cell-based, Clone20-Shn3RL, cherry-picked (AID 624133); type: functional
# [8] = biological target: Glyceraldehyde-3-phosphate dehydrogenase (Homo sapiens, UniProt P04406)
# [9] = biological target: T2, Dual specificity protein phosphatase 6 (Rattus norvegicus, UniProt Q64346);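 also: in vitro confirmatory secondary MKP-3 assay designed to detect irreversible or slow-binding inhibitors; recombinant His-tagged rat MKP-3 acting on the substrate OMFP; inhibitor potency from reduced phosphatase rate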
# T2 sequence (Q64346 whole entry): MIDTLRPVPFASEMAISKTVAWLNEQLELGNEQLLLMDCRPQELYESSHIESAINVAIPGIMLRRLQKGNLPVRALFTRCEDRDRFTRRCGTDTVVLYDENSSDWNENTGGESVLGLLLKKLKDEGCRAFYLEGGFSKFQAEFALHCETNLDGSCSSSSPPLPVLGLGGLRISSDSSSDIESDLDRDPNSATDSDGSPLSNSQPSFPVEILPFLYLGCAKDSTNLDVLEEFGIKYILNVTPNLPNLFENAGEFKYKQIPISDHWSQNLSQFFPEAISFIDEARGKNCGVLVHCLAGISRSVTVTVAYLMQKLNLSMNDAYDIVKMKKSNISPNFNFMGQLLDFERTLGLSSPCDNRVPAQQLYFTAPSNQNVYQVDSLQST
# [10] = biological target: Heat shock cognate 71 kDa protein (Homo sapiens, UniProt P11142); test: In Vitro Hsc70 Dose Response Fluorescence Polarization Assay. [Related pubchem assays: 1072 ]
# [11] = biological target: T3, Tyrosine-protein phosphatase non-receptor type 7 (Homo sapiens, UniProt P35236); type: functional
# T3 sequence (P35236 whole entry): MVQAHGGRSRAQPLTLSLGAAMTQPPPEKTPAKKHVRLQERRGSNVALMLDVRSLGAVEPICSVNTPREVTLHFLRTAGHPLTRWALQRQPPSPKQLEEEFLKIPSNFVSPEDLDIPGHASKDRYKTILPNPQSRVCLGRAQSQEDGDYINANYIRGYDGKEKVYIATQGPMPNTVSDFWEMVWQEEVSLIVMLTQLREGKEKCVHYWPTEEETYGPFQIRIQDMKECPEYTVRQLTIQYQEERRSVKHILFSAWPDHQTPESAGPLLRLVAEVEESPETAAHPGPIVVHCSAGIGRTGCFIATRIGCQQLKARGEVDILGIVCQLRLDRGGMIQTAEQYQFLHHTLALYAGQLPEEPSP
# [12] = biological target: Heat shock 70 kDa protein 1A (Homo sapiens, UniProt P0DMV8); test: Hsp70 inhibitors, SAR follow-up, biochemical, fluorescence polarization (AID 1072)
# [13] = biological target: Voltage-gated inwardly rectifying potassium channel KCNH2 (Homo sapiens, UniProt Q12809); conditions: Potency;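 also: confirmatory quantitative high-throughput screen measuring inhibition of hERG channel activity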
# [14] = Glucagon-like peptide 1 release potency, NCI-H716 cell line, dose-response, half-maximal inhibitory concentration (AID 1117344); type: functional, cell-based
# [15] = half-maximal inhibitory concentration for glucagon-like peptide-1 release, STC-1 cell line, dose-response (AID 1117345); type: functional, cell-based
# [16] = biological target: Cytochrome P450 2D6 (Homo sapiens, UniProt P10635); test: qHTS Assay for Inhibitors and Substrates of Cytochrome P450 2D6. [Related pubchem assays: 410 ]; type: ADME; conditions: read-out: Potency
# [17] = SNU-C1 cell viability reduction, dose response, CellTiter-Glo luminescence (AID 1117323); type: functional, cell-based
# [18] = CellTiter-Glo luminescent dose response of DLD-1 viability loss (AID 1117352); type: functional
# [19] = RKO cell viability reduction, dose response, CellTiter-Glo luminescence (AID 1117322); type: functional
# [20] = biological target: Fatty acid synthase (Homo sapiens, UniProt P49327); test: FAS thioesterase domain inhibitors, dose response, biochemical, kinetic fluorescence intensity (AID 624326); type: functional;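 also: rate of fluorescence rise from hydrolysis of a fluorogenic O-methyl fluorescein ester substrate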
# [21] = biological target: T4, Cysteine protease ATG4B (Homo sapiens, UniProt Q9Y4P1); type: functional;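 also: Fluorescence-based dose-response confirmation assay measuring inhibition of ATG4B activity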
# T4 sequence (Q9Y4P1 whole entry): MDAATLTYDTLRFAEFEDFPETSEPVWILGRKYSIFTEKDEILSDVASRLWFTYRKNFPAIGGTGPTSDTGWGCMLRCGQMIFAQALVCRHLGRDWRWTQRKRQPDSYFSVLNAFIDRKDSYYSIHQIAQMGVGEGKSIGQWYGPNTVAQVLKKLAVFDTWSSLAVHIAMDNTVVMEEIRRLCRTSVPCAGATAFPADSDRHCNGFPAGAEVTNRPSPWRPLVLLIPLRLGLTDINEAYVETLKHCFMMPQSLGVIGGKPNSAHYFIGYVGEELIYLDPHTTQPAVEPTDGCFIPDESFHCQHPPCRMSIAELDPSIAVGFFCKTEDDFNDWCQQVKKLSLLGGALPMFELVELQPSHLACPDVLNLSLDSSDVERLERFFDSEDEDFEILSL
# [22] = cytotoxicity toward HCT116 cells – cell-based, CellTiter-Glo luminescence, IC50, dose response (AID 1117332); type: functional; conditions: HCT-116
# [23] = HCT116 cell viability decrease, GSK3B pretreatment – CellTiter-Glo, IC50, dose response (AID 1117339); type: functional; conditions: HCT-116
# [24] = biological target: Phospholipase A2 (Homo sapiens, UniProt P04054); type: functional;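 also: confirmatory dose-response counterscreen on phospholipase A2, testing hits that came from an ultra-high-throughput screen for ATG4B inhibitors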
# [25] = biological target: Heat shock protein HSP 90-alpha (Homo sapiens, UniProt P07900); type: functional, organism-based
# [26] = cytotoxicity toward Colo320 cells – cell-based, CellTiter-Glo luminescence, IC50, dose response (AID 1117334); type: functional; conditions: COLO 320
# [27] = Concentration-dependent survival of SW480 colon cancer line, luminescence detection with CellTiter-Glo, half-maximal inhibitory concentration (AID 1117338); type: functional
# Vasopressin V1a receptor, sequence (P37288 whole entry): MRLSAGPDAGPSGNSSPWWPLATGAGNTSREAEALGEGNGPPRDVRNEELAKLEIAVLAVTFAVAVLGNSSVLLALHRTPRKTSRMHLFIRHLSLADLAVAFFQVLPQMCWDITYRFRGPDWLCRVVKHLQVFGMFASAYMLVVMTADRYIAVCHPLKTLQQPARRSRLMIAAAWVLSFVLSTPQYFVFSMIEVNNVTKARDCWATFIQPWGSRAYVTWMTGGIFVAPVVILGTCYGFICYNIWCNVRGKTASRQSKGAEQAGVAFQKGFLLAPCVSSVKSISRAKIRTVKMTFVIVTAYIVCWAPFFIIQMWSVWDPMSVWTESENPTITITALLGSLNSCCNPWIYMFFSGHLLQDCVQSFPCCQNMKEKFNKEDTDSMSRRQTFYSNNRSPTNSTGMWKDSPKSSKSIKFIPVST
# Fatty acid synthase, sequence (P49327 whole entry, the tested form may be a part): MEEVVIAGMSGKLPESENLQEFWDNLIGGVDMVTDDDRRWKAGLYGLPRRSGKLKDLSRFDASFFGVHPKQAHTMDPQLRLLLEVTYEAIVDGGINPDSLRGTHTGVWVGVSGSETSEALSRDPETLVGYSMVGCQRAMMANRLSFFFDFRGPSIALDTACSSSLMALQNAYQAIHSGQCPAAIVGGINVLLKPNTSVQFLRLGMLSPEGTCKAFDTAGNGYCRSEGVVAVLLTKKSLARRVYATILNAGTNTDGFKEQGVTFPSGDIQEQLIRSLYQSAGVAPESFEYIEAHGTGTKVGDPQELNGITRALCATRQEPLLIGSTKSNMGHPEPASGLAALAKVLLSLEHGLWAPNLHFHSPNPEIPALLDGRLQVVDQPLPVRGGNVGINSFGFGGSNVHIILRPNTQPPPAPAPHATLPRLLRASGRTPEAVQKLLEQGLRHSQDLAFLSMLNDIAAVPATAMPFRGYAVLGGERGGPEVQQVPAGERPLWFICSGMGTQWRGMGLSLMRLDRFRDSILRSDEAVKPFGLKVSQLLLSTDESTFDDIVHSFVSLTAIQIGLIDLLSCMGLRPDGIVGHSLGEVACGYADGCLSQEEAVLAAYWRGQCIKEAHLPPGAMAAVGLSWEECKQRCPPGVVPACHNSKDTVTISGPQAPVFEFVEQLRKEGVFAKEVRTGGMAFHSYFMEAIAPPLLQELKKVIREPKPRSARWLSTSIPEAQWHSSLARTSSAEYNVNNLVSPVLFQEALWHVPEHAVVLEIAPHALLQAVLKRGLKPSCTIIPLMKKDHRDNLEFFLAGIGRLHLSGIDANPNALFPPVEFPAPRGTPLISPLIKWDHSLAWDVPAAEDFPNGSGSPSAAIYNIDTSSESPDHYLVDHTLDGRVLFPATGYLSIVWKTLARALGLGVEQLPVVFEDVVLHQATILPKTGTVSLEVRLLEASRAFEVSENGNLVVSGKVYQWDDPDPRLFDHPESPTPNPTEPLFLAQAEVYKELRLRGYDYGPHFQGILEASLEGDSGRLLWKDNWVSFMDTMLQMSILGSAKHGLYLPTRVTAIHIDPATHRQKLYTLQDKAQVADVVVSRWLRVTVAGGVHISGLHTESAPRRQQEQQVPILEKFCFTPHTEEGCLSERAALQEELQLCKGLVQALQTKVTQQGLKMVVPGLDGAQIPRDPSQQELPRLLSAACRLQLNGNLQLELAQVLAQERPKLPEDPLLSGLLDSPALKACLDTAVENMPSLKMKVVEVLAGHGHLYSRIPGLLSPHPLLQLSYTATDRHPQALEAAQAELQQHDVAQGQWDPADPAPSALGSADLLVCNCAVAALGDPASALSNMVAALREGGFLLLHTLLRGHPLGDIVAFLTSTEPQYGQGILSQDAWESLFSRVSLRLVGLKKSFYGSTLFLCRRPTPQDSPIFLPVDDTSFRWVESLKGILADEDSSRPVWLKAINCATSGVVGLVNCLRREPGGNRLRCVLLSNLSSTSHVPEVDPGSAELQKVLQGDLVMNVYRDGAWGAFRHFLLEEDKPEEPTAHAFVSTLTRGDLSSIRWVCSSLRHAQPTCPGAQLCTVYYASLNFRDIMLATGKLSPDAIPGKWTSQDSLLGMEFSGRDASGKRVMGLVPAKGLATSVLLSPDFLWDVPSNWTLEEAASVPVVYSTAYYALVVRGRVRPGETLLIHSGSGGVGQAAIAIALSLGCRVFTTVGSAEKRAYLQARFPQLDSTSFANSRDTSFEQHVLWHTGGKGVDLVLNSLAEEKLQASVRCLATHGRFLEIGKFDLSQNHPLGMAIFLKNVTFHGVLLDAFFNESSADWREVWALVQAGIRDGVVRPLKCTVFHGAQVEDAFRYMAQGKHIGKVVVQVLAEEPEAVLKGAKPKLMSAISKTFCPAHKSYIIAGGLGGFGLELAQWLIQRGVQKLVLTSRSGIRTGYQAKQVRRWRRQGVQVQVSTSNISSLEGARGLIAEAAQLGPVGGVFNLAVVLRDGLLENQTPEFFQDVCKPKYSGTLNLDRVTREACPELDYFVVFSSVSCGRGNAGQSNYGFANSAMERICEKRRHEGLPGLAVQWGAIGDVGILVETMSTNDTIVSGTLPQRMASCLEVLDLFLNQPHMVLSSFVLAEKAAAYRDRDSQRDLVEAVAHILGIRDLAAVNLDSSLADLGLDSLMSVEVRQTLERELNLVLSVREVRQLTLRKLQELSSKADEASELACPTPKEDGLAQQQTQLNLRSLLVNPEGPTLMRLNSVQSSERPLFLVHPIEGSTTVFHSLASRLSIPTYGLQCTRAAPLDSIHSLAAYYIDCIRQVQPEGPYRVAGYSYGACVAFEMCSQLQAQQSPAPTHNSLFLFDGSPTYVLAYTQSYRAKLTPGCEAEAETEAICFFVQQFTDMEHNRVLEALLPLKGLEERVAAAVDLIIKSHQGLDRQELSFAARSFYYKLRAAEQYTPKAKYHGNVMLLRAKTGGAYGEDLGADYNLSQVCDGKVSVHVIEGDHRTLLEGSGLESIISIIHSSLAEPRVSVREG
# Cytochrome P450 2D6, sequence (P10635 whole entry): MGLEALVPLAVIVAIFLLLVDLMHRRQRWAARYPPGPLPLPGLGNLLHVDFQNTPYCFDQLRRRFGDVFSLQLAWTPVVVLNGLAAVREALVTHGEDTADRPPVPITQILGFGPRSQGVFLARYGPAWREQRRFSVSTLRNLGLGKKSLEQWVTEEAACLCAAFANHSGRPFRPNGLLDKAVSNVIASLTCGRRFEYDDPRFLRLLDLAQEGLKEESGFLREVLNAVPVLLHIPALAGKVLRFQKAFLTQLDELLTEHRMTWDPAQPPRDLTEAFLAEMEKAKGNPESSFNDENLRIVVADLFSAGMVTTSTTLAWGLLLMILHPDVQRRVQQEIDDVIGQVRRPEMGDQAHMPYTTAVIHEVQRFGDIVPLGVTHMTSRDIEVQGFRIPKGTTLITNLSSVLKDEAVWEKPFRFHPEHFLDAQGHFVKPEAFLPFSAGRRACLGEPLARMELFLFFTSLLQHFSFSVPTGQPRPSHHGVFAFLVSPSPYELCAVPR
# Glyceraldehyde-3-phosphate dehydrogenase, sequence (P04406 whole entry): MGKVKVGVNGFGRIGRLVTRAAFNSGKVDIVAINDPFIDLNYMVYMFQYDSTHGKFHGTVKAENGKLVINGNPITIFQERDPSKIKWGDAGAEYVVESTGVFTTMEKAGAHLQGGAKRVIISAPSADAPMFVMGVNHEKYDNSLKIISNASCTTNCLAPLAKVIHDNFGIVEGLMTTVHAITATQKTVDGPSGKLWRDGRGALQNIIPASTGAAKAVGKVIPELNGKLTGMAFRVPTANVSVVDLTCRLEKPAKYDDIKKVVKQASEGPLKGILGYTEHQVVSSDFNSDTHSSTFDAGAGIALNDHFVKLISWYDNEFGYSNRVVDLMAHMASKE
# Heat shock 70 kDa protein 1A, sequence (P0DMV8 whole entry): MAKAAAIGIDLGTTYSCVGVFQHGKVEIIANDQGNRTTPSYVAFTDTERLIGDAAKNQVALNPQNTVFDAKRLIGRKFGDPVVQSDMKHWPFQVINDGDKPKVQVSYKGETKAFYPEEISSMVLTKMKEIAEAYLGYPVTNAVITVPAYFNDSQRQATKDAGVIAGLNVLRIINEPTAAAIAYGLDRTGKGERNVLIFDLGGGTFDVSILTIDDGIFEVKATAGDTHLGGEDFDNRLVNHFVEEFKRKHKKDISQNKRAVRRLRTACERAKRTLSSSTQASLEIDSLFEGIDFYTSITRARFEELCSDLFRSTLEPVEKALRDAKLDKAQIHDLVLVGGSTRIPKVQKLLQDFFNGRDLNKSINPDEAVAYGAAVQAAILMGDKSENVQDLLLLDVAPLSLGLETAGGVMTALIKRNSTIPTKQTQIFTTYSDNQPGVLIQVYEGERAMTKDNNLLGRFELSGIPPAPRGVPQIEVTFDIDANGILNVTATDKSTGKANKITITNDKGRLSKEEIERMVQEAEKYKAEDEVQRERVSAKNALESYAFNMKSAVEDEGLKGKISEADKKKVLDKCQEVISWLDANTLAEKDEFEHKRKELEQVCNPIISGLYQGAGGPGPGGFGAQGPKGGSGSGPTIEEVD
# Oxytocin receptor, sequence (P30559 whole entry): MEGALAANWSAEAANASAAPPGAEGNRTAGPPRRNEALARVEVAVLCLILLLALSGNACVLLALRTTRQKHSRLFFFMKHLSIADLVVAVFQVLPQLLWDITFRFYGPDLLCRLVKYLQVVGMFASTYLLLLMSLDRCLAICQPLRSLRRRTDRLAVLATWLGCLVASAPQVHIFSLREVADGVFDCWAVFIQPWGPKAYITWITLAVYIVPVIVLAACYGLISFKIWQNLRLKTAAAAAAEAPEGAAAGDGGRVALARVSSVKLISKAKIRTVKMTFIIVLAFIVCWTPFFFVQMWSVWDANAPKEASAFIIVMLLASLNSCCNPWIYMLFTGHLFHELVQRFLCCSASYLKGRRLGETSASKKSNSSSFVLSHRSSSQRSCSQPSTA
# Phospholipase A2, sequence (P04054 whole entry): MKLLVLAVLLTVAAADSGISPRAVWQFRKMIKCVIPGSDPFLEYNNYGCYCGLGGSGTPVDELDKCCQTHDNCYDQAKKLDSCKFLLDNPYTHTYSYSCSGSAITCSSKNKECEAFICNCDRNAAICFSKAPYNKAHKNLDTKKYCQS
structure (smiles),measurement,setting,value
O=C(CCCCCn1c(=S)[nH]c2ccccc2c1=O)N1CCN(c2cccc(Cl)c2)CC1,IC50,[1],0.35 µM (not active)
COc1ccc(CNc2[nH]cnc3c4ccccc4nc2-3)cc1,IC50,[2],12.4 µM (active)
same,EC50,[3],27.4 µM (not active)
same,EC50,[4],> 29.9 µM (not active)
same,AC50,[5],4.19 µM (active)
same,AC50,[6],28 µM (active)
same,AC50,[7],5.89 µM (active)
COC(=O)c1ccccc1OC(=O)c1ccc2c(c1)C1C=CCC1C(C(=O)O)N2 (configuration not stated),IC50,[8],93.6 µM (active)
same,IC50,[9],17 µM (active)
same,IC50,[10],115 µM (active)
same,IC50,[11],2.8 µM (active)
same,IC50,[12],28 µM (active)
Oc1ccc(Cl)cc1Sc1cc(Cl)ccc1O [FENTICLOR],AC50,[13],31.6 µM (inconclusive)
same,IC50,[14],21.3 µM (inactive)
same,IC50,[15],> 20 µM (inactive)
same,AC50,[16],3.16 µM (inconclusive)
same,IC50,[17],1.85 µM (active)
same,IC50,[18],0.301 µM (active)
same,IC50,[19],0.116 µM (active)
same,IC50,[20],3.52 µM (active)
same,IC50,[21],11 µM (active)
same,IC50,[22],0.183 µM (active)
same,IC50,[23],0.148 µM (active)
same,IC50,[24],15.2 µM (active)
same,AC50,[25],4.11 µM (active)
same,IC50,[26],0.075 µM (active)
same,IC50,[27],0.579 µM (active)
